According to patent US7205002B2, “Method of making, and the use of cytotoxic agents containing elemental selenium” (MCW Research Foundation, Inc., priority 2002, dated 2007):
Read-outs that look alike come from different tables or passages of the source. * marks the point of attachment. Cbz = O=C(OCc1ccccc1)*; CH2F = FC*

Columns and labels:
tumor cells = assay: Interactions of conjugates with ionizing radiation and standard chemotherapeutic agents; conditions: 30 min pretreatment, nontoxic 3 mg/ml
Description: Alternatively, 5 or 6 doses of conjugates were used in combination with one or two doses of a drug. Depending on the combination, the two agents were applied either sequentially or simultaneously. […] For each combination, two or more target cells were selected from the following panel of tumor cell lines: L1210 and HL-60/ADR leukemia cells, PC3 and DU145 prostate cancer cells, H69 lung cancer cells, Mm5MT, MDA-MB-23 1, MDA-MB-435 and C1271 breast cancer cells, and SK-ES-1 Ewing's sarcoma cells.

L1210 leukemia cells = assay: Cytotoxic activity of conjugates formed by dye photoproducts and serum (lipo)proteins, in vitro clonal assay; assay type: cell-based, murine
Description: The mixtures were exposed to white light (27 W/m^2) for 60 min as deescribed above. […] To assess cytotoxic activity, cytotoxic conjugates were made isotonic by the addition of an appropriate volume of double-concentrated alpha-medium and incubated with L1210 leukemia cells for 60 min at 37° C. The surviving fraction of in vitro clonogenic leukemia cells was determined by in vitro clonal assay as described in Sieber, F. et al., 1984, which is incorporated by reference in its entirety. […] The fluorescence yield of fluorescent photoproduct-albumin conjugates was determined with a Hitachi F4500 fluorescence spectrophotometer. All samples were serially diluted with buffer to rule out artifacts due to self-quenching. In vitro clonal assays of L1210 murine leukemia cells were used to assess cytotoxic activity.

[1] = test system: DU145 prostate cancer cells; assay: Cytotoxicity of conjugates alone or in combination; assay type: cell-based, human
Description: The study was conducted with DU145 human prostate cancer cells. The protein source was fetal bovine serum, and the data points are means of 4 plates±SE.

[2] = test system: PC3 prostate cancer cells; assay: Cytotoxicity of conjugates in combination; assay type: cell-based
[3] = test system: MDA-MB-435 breast cancer cells; assay: Cytotoxicity of conjugates in combination; assay type: cell-based, human; conditions: 0.5 mM; 20 hours
[4] = test system: normal murine granulocyte/macrophage progenitors (mCFU-GM); assay: Surviving fraction after 45 min exposure, in vitro clonal assay; assay type: cell-based; conditions: 10 μg/ml
Description: (§1) Cytotoxic Se(0)-protein conjugates were generated by exposing alpha-medium supplemented with fetal bovine serum (10%) and selenomerocyanine photosensitizer MC54 (26 μM) to cool white fluorescent light (fluence rate: 27 W/m^2) for 60 min. Wild-type L1210 leukemia cells, melphalan-resistant mutant L1210/L-PAM1 cells, or normal murine granulocyte/macrophage progenitors (mCFU-GM) (10^6/ml) were suspended either in cytotoxic conjugates or in alpha-medium supplemented with 4-HC (10 μg/ml) and incubated for 45 min at 37° C. Treatment conditions were selected to achieve a similar recovery of normal murine hematopoietic progenitor cells (mCFU-GM). Cells were washed free of excess conjugates or drug, and surviving fractions were determined by in vitro clonal assay.

[5] = test system: Wild-type L1210 leukemia cells; assay: as above; assay type: cell-based, murine; conditions: 10 μg/ml
Description: as §1

[6] = test system: melphalan-resistant mutant L1210/L-PAM1 cells; assay: as above; assay type: cell-based, murine; conditions: 10 μg/ml
Description: as §1

[7] = in vivo; cited from earlier work
female B6D2F1 mice = assay: Acute systemic toxicity, intraperitoneal injection; assay type: in vivo; conditions: MC54 26 μM with equimolar bovine serum albumin; 1-ml i.p. injection on 1 to 5 consecutive days
Description: Acute Systemic Toxicity of Photoproduct-Protein Conjugates in Mice: In an initial acute toxicity study, groups of 5 female B6D2F1 mice were injected intraperitoneally with photoproduct-protein conjugates. The photoproduct-protein conjugates were generated by photobleaching the selenomerocyanine MC54 (26 μM) in the presence of an equimolar concentration of bovine serum albumin. Group 1 received one 1-ml intraperitoneal injection of this conjugate. Groups 2 through 5 received the same injection of conjugates on 2, 3, 4, or 5 consecutive days, respectively.
The second toxicity experiment used conjugates that had been prepared with a dye-to-protein ratio of 5:1. Since MC54 was added from stock solutions in ethanol, the mice of the second series were exposed to 5-fold higher doses of ethanol.

[8] = test system: caspase activity in L1210 leukemia cells; assay: Caspase Detection Kit (FITC-VAD-FMK) with specific peptide inhibitors; assay type: cell-based, murine; conditions: inhibitor 0.1 mM, 37° C., 1 hour
Description: Conjugates were derived from MC56 to avoid a spectral interference with the fluorescent caspase substrate. The protein source was fetal bovine serum. Caspase inhibitors were used as recommended by the manufacturer (R&D Systems). That is, each sample contained 10^6 cells, and the final concentration of inhibitors was 0.1 mM. Incubation was at 37° C. for 1 hour. […] In FIG. 12, the “Z-” prefix and the “-FMK” suffix are omitted because of space limitations.
We have used the Oncogene (San Diego, Calif.) Caspase Detection Kit to monitor caspase activity in L1210 leukemia cells after exposure to cytotoxic Se(0)-protein conjugates. The kit uses a fluorescent substrate (FITC-VAD-FMK; a conjugate of fluoresceinisothiocyanate with a fluoromethylketone-derivaticed short peptide) that detects a broad range of caspases. When FITC-VAD-FMK is used in conjunction with non-cytotoxic concentrations of specific peptide inhibitors (R&D Systems, Minneapolis, Minn.), the inhibition of the fluorescent signal is directly proportional to the contribution of the respective caspases to the overall signal. […] Caspases 2, 4 and 9 show moderate activation whereas caspases 1, 3, 6 and 8 show little or no activity. […]

For NCCCNCCSP(=O)(O)O [amifostine], the “Effect of pretreatment on response to cytotoxic conjugates” value (tumor cells) was “sensitized tumor cells to cytotoxic conjugates”.
In the case of “Bovine serum albumin: carrier protein for conjugates with MC54-derived photoproducts”, the “Cytotoxic Activity” value (L1210 leukemia cells) is reported as “yes”.
For Fetal bovine serum, the “Cytotoxic Activity” value (L1210 leukemia cells) was “yes”.
For CCCCS(=N)(=O)CCC(N)C(=O)O (stereo not shown) [buthionine sulfoximine], the “Effect of pretreatment on response to conjugates” value (shortened to “Effect … to conjugates”) ([1]; 0.5 mM, 20 hours) was “improved the response”, the “Effect … to conjugates” value ([2]; 0.5 mM, 20 hours) was “little or no effect” and the “Effect … to conjugates” value [3] was “little or no effect”.
In the case of O=P1(N(CCCl)CCCl)NC(OO)CCO1 (stereo not shown) [Dye 4-HC, 4-Hydroperoxycyclophosphamide], the “Surviving Fraction” value [4] is reported as 0.0088 ± 0.0025, the “Surviving Fraction” value [5] is reported as 0.0460 ± 0.0043 and the “Surviving Fraction” value [6] is reported as 0.2636 ± 0.0074.
In the case of albumin, the “Cytotoxicity of conjugates by carrier (lipo)protein” value (L1210 leukemia cells) is given as “more cytotoxic than conjugates formed by HDL” and the half-life [7] is given as “approximately 19 days”.
In the case of “Carboxymethylated bovine serum albumin: commercial product from Sigma Chemical Co.”, the “Cytotoxic Activity” value (L1210 leukemia cells) is reported as “no”.
For N.N.[Cl][Pt][Cl] [cisplatin], the “Antitumor effect, sequential exposure with conjugates” value ([1]; sequential exposure) was “additive” and the “Antitumor effect, sequential exposure with conjugates” value ([2]; sequential exposure) was “additive”.
For CCCCN1C(=O)C(=C/C=C/C=C2\Oc3ccccc3N2CCCS(=O)(=O)[O-])C(=O)N(CCCC)C1=S.[Na+] [MC540], the “Cytotoxic Activity” value (L1210 leukemia cells) was “no”.
In the case of “photoproduct-protein conjugates: generated by photobleaching the selenomerocyanine MC54 (26 μM) in the presence of an equimolar concentration of bovine serum albumin”, the Signs of toxicity (female B6D2F1 mice) is reported as “None of the animals showed signs of acute or chronic toxicity” and the Survival (female B6D2F1 mice) is reported as “All animals survived”.
With CCO [Ethanol] the “Cytotoxic Activity” value (L1210 leukemia cells; MC54-derived photoproducts with the given solvent/protein) was “no”.
In the case of Cbz-Val-Ala-Asp-CH2F, the “Inhibition of the fluorescent caspase signal” value [8] is reported as “reduced the fluorescence signal more than any of the specific inhibitors”.
